Experimental findings from article PMC6661771, “Indole hybridized diazenyl derivatives: synthesis, antimicrobial activity, cytotoxicity evaluation and docking studies” (BMC Chemistry, 2019) are described below.

The test system of data set [1] is E. coli. Put plainly: MIC by tube dilution method. To be noted: Escherichia coli, 24 h, 24 h at 37 °C, read-out: MIC. In kind it is cell-based.
The subject of data set [2] is S. aureus. The data set can be described thus: MIC by tube dilution method. Type of data set: cell-based. The settings on record: Staphylococcus aureus, 24 h at 37 °C, read-out: MIC.
Data set [3] relates to S. enterica. Put plainly: MIC by tube dilution method. Type of data set: cell-based. The settings on record: Salmonella enterica, 24 h, 24 h at 37 °C, read-out: MIC.
In data set [4] the test system is B. subtilis. Put plainly: MIC by tube dilution method. Type of data set: cell-based. The settings on record: Bacillus subtilis, 24 h at 37 °C, read-out: MIC.
For data set [5], the system named is K. pneumonia. The data set can be described thus: MIC by tube dilution method. In kind it is cell-based. The settings on record: Klebsiella pneumoniae, 24 h, 24 h at 37 °C, read-out: MIC.
The test system of data set [6] is E. coli. The data set can be described thus: Minimum bactericidal concentration (MBC). Type of data set: cell-based. The settings on record: Escherichia coli.
Data set [7] relates to S. aureus. Put plainly: Minimum bactericidal concentration (MBC). Type of data set: cell-based. The settings on record: Staphylococcus aureus.
Data set [8] concerns S. enterica. Put plainly: Minimum bactericidal concentration (MBC). Type of data set: cell-based. The settings on record: Salmonella enterica, read-out: MBC/MFC. On the procedure: After MIC assessment, the indole derivatives (DS1–DS21), were additionally evaluated for MBC and MFC values. […] The 10–15 ml of nutrient agar and Sabouraud dextrose agar was added to the petri plates for bacterial and fungal samples respectively with gentle shaking of plates in order to mix the culture throughout the media. Allowed the media to solidify. The petri plates were then incubated for the predefined time and temperature as referenced already for bacterial and fungal cultures respectively. The plates were then investigated visually for the development of microbial growth. The MBC and MFC were stated as the minimum concentration of the compounds in aliquots showing no visual growth after incubation.

Data set [9] relates to B. subtilis. Put plainly: Minimum bactericidal concentration (MBC). Type of data set: cell-based. To be noted: Bacillus subtilis.
The subject of data set [10] is K. pneumonia. The data set can be described thus: Minimum bactericidal concentration (MBC). To be noted: Klebsiella pneumoniae. Type of data set: cell-based.
For data set [11], the system named is A. niger. Put plainly: MIC by tube dilution method. In kind it is cell-based. The settings on record: Aspergillus niger, 168 h, 7 days at 25 °C, read-out: MIC.
The subject of data set [12] is A. fumigatus. The data set can be described thus: MIC by tube dilution method. Type of data set: cell-based. To be noted: Aspergillus fumigatus, 168 h, 7 days at 25 °C, read-out: MIC.
Data set [13] relates to A. niger. Put plainly: Minimum fungicidal concentration (MFC). Type of data set: cell-based. The settings on record: Aspergillus niger, read-out: MBC/MFC.
For data set [14], the system named is A. fumigatus. The data set can be described thus: Minimum fungicidal concentration (MFC). Type of data set: cell-based. The settings on record: Aspergillus fumigatus, read-out: MBC/MFC.

SMILES strings stand for the structures. In brackets after ≈: the same amount, converted by molar mass. Read-outs that look alike come from different tables or passages of the source.

As to `CO/N=C(\C(=O)N[C@@H]1C(=O)N2C(C(=O)O)=C(COC(C)=O)CS[C@H]12)c1csc(N)n1` [CFT, cefotaxime, reference compound], the MIC (as a rule, the lowest concentration found to suppress growth) in [1] amounted to 1.95 mg/L (≈ 4.28 µM); in [2], 15.6 mg/L (≈ 34.3 µM); in data set [3] it was 15.6 mg/L (≈ 34.3 µM); in data set [4] it was 15.6 mg/L (≈ 34.3 µM); in data set [5], 1.95 mg/L (≈ 4.28 µM). The MBC in [6] was 15.6 mg/L (≈ 34.3 µM); in [7], 31.2 mg/L (≈ 68.6 µM); in data set [8] (S. enterica, MBC) it was 31.2 mg/L (≈ 68.6 µM); in data set [9], 15.6 mg/L (≈ 34.3 µM); in [10], 3.9 mg/L (≈ 8.56 µM).
Regarding `O=C(O)c1cn(C2CC2)c2cc(N3CCNCC3)c(F)cc2c1=O` [CPR, ciprofloxacin, reference compound], the minimal inhibitory concentration (MIC) in data set [1] was determined as 3.9 mg/L (≈ 11.8 µM); in [2], 1.95 mg/L (≈ 5.89 µM); in data set [3], 15.6 mg/L (≈ 47.1 µM); in data set [4], 7.81 mg/L (≈ 23.6 µM); in [5] it was 7.81 mg/L (≈ 23.6 µM). Moreover, the MBC in data set [6] came out at 31.2 mg/L (≈ 94.3 µM); in data set [7] it was 62.5 mg/L (≈ 189 µM); in data set [8] (S. enterica, MBC), 31.2 mg/L (≈ 94.3 µM); in data set [9] it was 31.2 mg/L (≈ 94.3 µM); in [10] it was 7.81 mg/L (≈ 23.6 µM).
Consider `C/C(=N\Cc1ccco1)c1ccc(/N=N/c2c[nH]c3ccccc23)cc1` [DS-1, (E)-N-(2-Furylmethyl)-1-[4-[(E)-1H-indol-3-ylazo]phenyl]ethanimine], for which the melting point – broadly, the temperature of the solid-liquid transition – fell in the range of 315 to 320 °C. Further, the minimum inhibitory concentration (MIC) in data set [1] was 15.6 mg/L (≈ 45.6 µM). In data set [2], the MIC amounted to 62.5 mg/L (≈ 183 µM). In [3], the MIC stood at 62.5 mg/L (≈ 183 µM). Besides, the minimal inhibitory concentration (MIC) in [4] stood at 62.5 mg/L (≈ 183 µM). The minimal inhibitory concentration (MIC) in data set [5] was determined as 3.9 mg/L (≈ 11.4 µM). The minimal inhibitory concentration (MIC) in data set [11] was determined as 125 mg/L (≈ 365 µM). For the same compound, the MIC in [12] turned out to be 62.5 mg/L (≈ 183 µM). Moreover, the MBC in data set [6] was determined as 125 mg/L (≈ 365 µM). In [7], this compound returned an MBC of 125 mg/L (≈ 365 µM). Moreover, the MBC in data set [8] (S. enterica, MBC) is 62.5 mg/L (≈ 183 µM). The same compound yielded an MBC in data set [9] of 125 mg/L (≈ 365 µM). The MFC in data set [13] worked out at 125 mg/L (≈ 365 µM). The MFC in [14] is 125 mg/L (≈ 365 µM).
`C/C(=N/c1nnc(-c2ccc([N+](=O)[O-])cc2)s1)c1ccc(/N=N\c2c[nH]c3ccc([N+](=O)[O-])cc23)cc1` [DS-5, (Z)-N-(1-(4-((Z)-(5-Nitro-1H-indol-3-yl)diazenyl)phenyl)ethylidene)-5-(4-nitrophenyl)-1,3,4-thiadiazol-2-amine] came in with a melting point of 160 to 165 °C. Further, in data set [1], the minimum inhibitory concentration (MIC) was 1.95 mg/L (≈ 3.8 µM). Also, in data set [2], the MIC turned out to be 125 mg/L (≈ 244 µM). The MIC in data set [3] stood at 31.2 mg/L (≈ 61 µM). Further, in [4], the MIC is 62.5 mg/L (≈ 122 µM). For the same compound, the MIC in [5] was 3.9 mg/L (≈ 7.61 µM). Besides, the MIC in [11] is 62.5 mg/L (≈ 122 µM). The minimal inhibitory concentration (MIC) in data set [12] is 125 mg/L (≈ 244 µM). The compound also had an MBC in data set [6] of 31.2 mg/L (≈ 61 µM). In data set [7], this compound yielded an MBC of 125 mg/L (≈ 244 µM). In addition, the MBC in data set [8] (S. enterica, MBC) turned out to be 62.5 mg/L (≈ 122 µM). This compound also came in with an MBC in data set [9] of 125 mg/L (≈ 244 µM). Further, the MBC in data set [10] stood at 15.6 mg/L (≈ 30.5 µM). Moreover, the MFC in data set [13] was found to be 125 mg/L (≈ 244 µM). Further, the MFC in [14] is 125 mg/L (≈ 244 µM).
`CCc1nnc(/N=C(/C)c2ccc(/N=N\c3c[nH]c4ccccc34)cc2)s1` [DS-7, (Z)-N-(1-(4-((Z)-(1H-Indol-3-yl)diazenyl)phenyl)ethylidene)-5-ethyl-1,3,4-thiadiazol-2-amine] showed a melting point of 145 to 150 °C. In addition, the MIC in data set [1] came out at 7.81 mg/L (≈ 20.9 µM). Besides, the MIC in data set [2] was 62.5 mg/L (≈ 167 µM). The MIC in data set [3] was determined as 31.2 mg/L (≈ 83.5 µM). The MIC in data set [4] was 125 mg/L (≈ 334 µM). Also, the minimum inhibitory concentration (MIC) in data set [5] stood at 3.9 mg/L (≈ 10.4 µM). For the same compound, the minimal inhibitory concentration (MIC) in data set [11] came out at 62.5 mg/L (≈ 167 µM). The MIC in [12] was determined as 62.5 mg/L (≈ 167 µM). In data set [6], this compound yielded an MBC of 31.2 mg/L (≈ 83.5 µM). The MBC in data set [7] was 125 mg/L (≈ 334 µM). For the same compound, the MBC in [8] was 31.2 mg/L (≈ 83.5 µM). Moreover, the MBC in data set [9] is 125 mg/L (≈ 334 µM). Further, the MBC in [10] amounted to 16.2 mg/L (≈ 43.4 µM). The MFC in [13] is 125 mg/L (≈ 334 µM). Further, the MFC in data set [14] is 125 mg/L (≈ 334 µM).
In turn, `C/C(=N/c1ccc(S(=O)(=O)Nc2ccccn2)cc1)c1ccc(/N=N\c2c[nH]c3ccccc23)cc1` [DS-11, 4-((Z)-(1-(4-((Z)-(1H-Indol-3-yl)diazenyl)phenyl)ethylidene)amino)-N-(pyridin-2-yl)benzenesulfonamide] showed a melting point of 135 to 140 °C. The minimal inhibitory concentration (MIC) in data set [1] turned out to be 3.9 mg/L (≈ 7.89 µM). The MIC in [2] came out at 31.2 mg/L (≈ 63.2 µM). Besides, the MIC in data set [3] amounted to 62.5 mg/L (≈ 126 µM). Further, the MIC in [4] came to 31.2 mg/L (≈ 63.2 µM). In addition, the minimal inhibitory concentration (MIC) in data set [5] was found to be 15.6 mg/L (≈ 31.6 µM). Besides, in data set [11], the MIC came out at 125 mg/L (≈ 253 µM). Moreover, the minimal inhibitory concentration (MIC) in [12] was 62.5 mg/L (≈ 126 µM). The compound also yielded an MBC in data set [6] of 62.5 mg/L (≈ 126 µM). In data set [7], this compound registered an MBC of 62.5 mg/L (≈ 126 µM). Moreover, in data set [8] (S. enterica, MBC), the MBC is 125 mg/L (≈ 253 µM). For the same compound, the MBC in data set [9] came out at 125 mg/L (≈ 253 µM). The MBC in data set [10] was determined as 31.2 mg/L (≈ 63.2 µM). In addition, the MFC in [13] came out at 125 mg/L (≈ 253 µM). Besides, the MFC in data set [14] is 125 mg/L (≈ 253 µM).
